Data on one molecule can be found in PMC4402584, “New Diterpenes from Cultures of the Fungus Engleromyces goetzii and Their CETP Inhibitory Activity” (Natural Products and Bioprospecting, 2015).

The target in this assay is T1, cholesterol ester transfer protein (CETP) (Oryctolagus cuniculus, UniProt P22687).
T1 sequence (P22687 2-497): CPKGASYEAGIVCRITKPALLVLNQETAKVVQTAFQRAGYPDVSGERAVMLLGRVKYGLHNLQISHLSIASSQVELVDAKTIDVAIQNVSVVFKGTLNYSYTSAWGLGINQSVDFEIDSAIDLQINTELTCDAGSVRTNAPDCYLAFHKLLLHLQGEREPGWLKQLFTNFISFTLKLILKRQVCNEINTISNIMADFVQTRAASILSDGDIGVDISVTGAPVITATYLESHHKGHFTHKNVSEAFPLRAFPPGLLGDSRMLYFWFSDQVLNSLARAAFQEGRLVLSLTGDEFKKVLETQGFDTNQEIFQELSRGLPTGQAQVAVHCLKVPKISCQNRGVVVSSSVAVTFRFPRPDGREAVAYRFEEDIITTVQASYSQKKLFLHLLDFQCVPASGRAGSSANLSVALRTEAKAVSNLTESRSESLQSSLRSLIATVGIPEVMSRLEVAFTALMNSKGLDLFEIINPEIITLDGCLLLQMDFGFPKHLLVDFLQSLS
Nature of the assay: fluorescent neutral lipid transfer assay (BioVision CETP Inhibitor Screening Kit) with rabbit serum as CETP source. The class given is biochemical.

`C=C[C@@H]1C(=C)CC[C@H]2[C@H]1CC[C@@H]1[C@]2(C)C[C@@H](O)C[C@]1(C)C(=O)O` [compound 1, engleromycenolic acid A]: 7.55 µM corresponded to half-maximal inhibition (IC50).
